Measured values published in patent US20250074910A1, “MENIN INHIBITOR AND USE THEREOF” (HITGEN INC., priority 2021, published 2025).

Each compound was assayed on OCI-AML3 (assay: Cell proliferation inhibition (CellTiter-Glo), OCI-AML3 (NPM1 mutation)). Settings: Homo sapiens, OCI-AML-3, 168 h, OCI-AML3 cells.
Assay type: cell-based
Experimental: (§1) Test Example 2: Test of the Inhibitory Ability of Menin-MLL Interaction Inhibitors on Cell Proliferation
(§2) The inhibitory ability of the compounds of the present disclosure on the proliferation of tumor cell lines (including cell lines containing MLL fusion protein such as MV4-11, MOLM-13, THP-1 and NOMO-1, control cell lines without MLL fusion protein such as HL-60, K562 and MOLM-16, and cell lines containing NPM1 mutation such as OCI-AML3) was evaluated by using the cell viability analysis method. The cells were plated in 96-well plates at a certain concentration (e.g., 5,000-20,000 cells/well), and then an equal volume of culture medium containing 2 times the final concentration of the test compound (the final concentration ranging 10 from 1 nM to 10 μM) was added. The plates were placed in an incubator and cultured at 37° C. and 5% CO2 for 72-168 h. Before the test, an equal volume of CellTiter-Glo® Luminescent reagent was added, and the plate was incubated at room temperature for 10 min before detection using an ELISA reader (BMG LABTECH). The data were analyzed using GraphPad Prism software to obtain the IC50 value and compound fitting curve. The control compound 1 was prepared by referring to the method of Example 64 in WO2017214367.

Q: Which GI50 does the source give for `CC(C)N(C(=O)c1cc(F)ccc1Oc1cncnc1N1CC2(CCN(CC3CC4CCC3CC43COC(=O)N3)CC2)C1)C(C)C` (single isomer, unassigned) [Example 51-1b] here?
A: 20.3 nM

Q: For `CC(C)N(C(=O)c1cc(F)ccc1Oc1nncnc1N1CC2(CCN(CC3CC4CCC3CC43COC(=O)N3)CC2)C1)C(C)C` (single isomer, unassigned) [Example 52-1b], which GI50 is on record?
A: 40 nM

Q: How did the GI50 turn out when `CCN(C(=O)c1cc(F)ccc1Oc1cncnc1N1CC2(CCN(C[C@H]3CC[C@]4(CC3)CC(C)(C)C(=O)N4)CC2)C1)C(C)C` [Example 21] was run?
A: 39.8 nM

Q: For `CC(C)N(C(=O)c1cc(F)ccc1Oc1cncnc1N1CC2(CCN(C[C@H]3CC[C@]4(CC3)CC(C)(C)C(=O)N4)CC2)C1)C(C)C` [Example 22], which GI50 is on record?
A: 24 nM

Q: `CC(C)N(C(=O)c1cc(F)ccc1Oc1nncnc1N1CC2(CCN(C[C@H]3CC[C@]4(CC3)CC(C)(C)C(=O)N4)CC2)C1)C(C)C` [Example 27] was tested. Which GI50 did it give?
A: 32.1 nM

Same assay, conditions: OCI-AML3 cells, 168 h

Q: For `CC(C)N(C(=O)c1cc(F)ccc1Oc1cncnc1N1CC2(CCN(CC3CC4CCC3CC43COC(=O)N3)CC2)C1)C(C)C` (single isomer, unassigned) [Example 51-2a], which GI50 is on record?
A: 31.5 nM

Q: `CC(C)N(C(=O)c1cc(F)ccc1Oc1nncnc1N1CC2(CCN(CC3CC4CCC3CC43COC(=O)N3)CC2)C1)C(C)C` (single isomer, unassigned) [Example 52-2a] was tested. Which GI50 did it give?
A: 47.9 nM

Q: With `CC(C)N(C(=O)c1cc(F)ccc1Oc1nncnc1N1CC2(CCN(CC3CC4CCC3CC43COC(=O)N3)CC2)C1)C(C)C` (single isomer, unassigned) [Example 52-2b] as the compound, how does the GI50 read?
A: 50.6 nM

These compounds were tested on MV4-11 (assay: Cell proliferation inhibition (CellTiter-Glo), MV4-11). Settings: Homo sapiens, MV4-11, 72 h, MV4-11 cells.
Assay type: cell-based
Experimental: as §1, §2

Q: With `CCN(C(=O)c1cc(F)ccc1Oc1cncnc1N1CC2(CCN(CC3CC4CCC3CC43CCC(=O)N3)CC2)C1)C(C)C` (single isomer, unassigned) [Example 3] as the compound, how does the GI50 read?
A: 94.7 nM

Q: How did the GI50 turn out when `CC(C)N(C(=O)c1cc(F)ccc1Oc1cncnc1N1CC2(CCN(CC3CC4CCC3CC43CCC(=O)N3)CC2)C1)C(C)C` (single isomer, unassigned) [Example 13-1] was run?
A: 82.6 nM

Q: `CCN(C(=O)c1cc(F)ccc1Oc1cncnc1N1CC2(CCN(CC3CC4CCC3CC43COC(=O)N3)CC2)C1)C(C)C` (single isomer, unassigned) [Example 50-1] was tested. Which GI50 did it give?
A: 74.4 nM

Q: With `CC(C)N(C(=O)c1cc(F)ccc1Oc1cncnc1N1CC2(CCN(CC3CC4CCC3CC43COC(=O)N3)CC2)C1)C(C)C` (single isomer, unassigned) [Example 51-1b] as the compound, how does the GI50 read?
A: 16.1 nM

Q: For `CC(C)N(C(=O)c1cc(F)ccc1Oc1nncnc1N1CC2(CCN(CC3CC4CCC3CC43CCC(=O)N3)CC2)C1)C1CC1` (centres unmarked) [Example 16-1], which GI50 is on record?
A: 130 nM

Q: Which GI50 does the source give for `CCN(C(=O)c1cc(F)ccc1Oc1cncnc1N1CC2(CCN(C[C@H]3CC[C@]4(CC3)CC(C)(C)C(=O)N4)CC2)C1)C(C)C` [Example 21] here?
A: 13.1 nM

Q: Which GI50 does the source give for `CC(C)N(C(=O)c1cc(F)ccc1Oc1cncnc1N1CC2(CCN(C[C@H]3CC[C@]4(CC3)CC(C)(C)C(=O)N4)CC2)C1)C(C)C` [Example 22] here?
A: 11.3 nM

Q: How did the GI50 turn out when `CC(C)N(C(=O)c1cc(F)ccc1Oc1nncnc1N1CC2(CCN(C[C@H]3CC[C@]4(CC3)CC(C)(C)C(=O)N4)CC2)C1)C(C)C` [Example 27] was run?
A: 13 nM

Q: `[2H]C([2H])([2H])C1(C([2H])([2H])[2H])C[C@]2(CC[C@@H](CN3CCC4(CC3)CN(c3ncnnc3Oc3ccc(F)cc3C(=O)N(CC)C(C)C)C4)CC2)NC1=O` [Example 33] was tested. Which GI50 did it give?
A: 20.5 nM

Q: How did the GI50 turn out when `[2H]C([2H])([2H])C1(C([2H])([2H])[2H])C[C@]2(CC[C@@H](CN3CCC4(CC3)CN(c3ncnnc3Oc3ccc(F)cc3C(=O)N(C(C)C)C(C)C)C4)CC2)NC1=O` [Example 34] was run?
A: 12.6 nM

Q: With `CCN(C(=O)c1cc(F)ccc1Oc1cncnc1N1CC2(CCN(C[C@H]3CC[C@]4(CC3)C[C@@H](COC)C(=O)N4)CC2)C1)C(C)C` [Example 35] as the compound, how does the GI50 read?
A: 11.7 nM

Q: For `COC[C@@H]1C[C@]2(CC[C@@H](CN3CCC4(CC3)CN(c3ncncc3Oc3ccc(F)cc3C(=O)N(C(C)C)C(C)C)C4)CC2)NC1=O` [Example 36], which GI50 is on record?
A: 13.1 nM

Q: How did the GI50 turn out when `CC1C[C@]2(CC[C@@H](CN3CCC4(CC3)CN(c3ncncc3Oc3ccc(F)cc3C(=O)N(C(C)C)C(C)C)C4)CC2)NC1=O` (some centres unmarked) [Example 39] was run?
A: 20 nM

Q: Which GI50 does the source give for `C=C1C[C@]2(CC[C@@H](CN3CCC4(CC3)CN(c3ncncc3Oc3ccc(F)cc3C(=O)N(C(C)C)C(C)C)C4)CC2)NC1=O` [Example 62] here?
A: 34.8 nM

Same assay, conditions: MV4-11 cells, 72 h

Q: `CCN(C(=O)c1cc(F)ccc1Oc1cncnc1N1CC2(CCN(CC3CC4CCC3CC43CCC(=O)N3)CC2)C1)C(C)C` (single isomer, unassigned) [Example 3-2] was tested. Which GI50 did it give?
A: 86.1 nM

Q: Which GI50 does the source give for `CC(C)N(C(=O)c1cc(F)ccc1Oc1cncnc1N1CC2(CCN(CC3CC4CCC3CC43COC(=O)N3)CC2)C1)C(C)C` (single isomer, unassigned) [Example 51-2a] here?
A: 11.7 nM

Q: `CC(C)N(C(=O)c1cc(F)ccc1Oc1nncnc1N1CC2(CCN(CC3CC4CCC3CC43COC(=O)N3)CC2)C1)C(C)C` (single isomer, unassigned) [Example 52-1b] was tested. Which GI50 did it give?
A: 11.9 nM

Q: How did the GI50 turn out when `CC(C)N(C(=O)c1cc(F)ccc1Oc1nncnc1N1CC2(CCN(CC3CC4CCC3CC43COC(=O)N3)CC2)C1)C(C)C` (single isomer, unassigned) [Example 52-2a] was run?
A: 43.6 nM

The compounds below were run against Menin/MLL-4-43 peptide interaction (Homo sapiens (Human), UniProt O00255) (assay: Menin-MLL interaction inhibitory activity assay (fluorescence polarization competition)). Settings: FITC-MLL4-43-peptide, Menin recombinant protein.
Menin/MLL-4-43 peptide interaction, sequence (O00255 whole entry, species assumed): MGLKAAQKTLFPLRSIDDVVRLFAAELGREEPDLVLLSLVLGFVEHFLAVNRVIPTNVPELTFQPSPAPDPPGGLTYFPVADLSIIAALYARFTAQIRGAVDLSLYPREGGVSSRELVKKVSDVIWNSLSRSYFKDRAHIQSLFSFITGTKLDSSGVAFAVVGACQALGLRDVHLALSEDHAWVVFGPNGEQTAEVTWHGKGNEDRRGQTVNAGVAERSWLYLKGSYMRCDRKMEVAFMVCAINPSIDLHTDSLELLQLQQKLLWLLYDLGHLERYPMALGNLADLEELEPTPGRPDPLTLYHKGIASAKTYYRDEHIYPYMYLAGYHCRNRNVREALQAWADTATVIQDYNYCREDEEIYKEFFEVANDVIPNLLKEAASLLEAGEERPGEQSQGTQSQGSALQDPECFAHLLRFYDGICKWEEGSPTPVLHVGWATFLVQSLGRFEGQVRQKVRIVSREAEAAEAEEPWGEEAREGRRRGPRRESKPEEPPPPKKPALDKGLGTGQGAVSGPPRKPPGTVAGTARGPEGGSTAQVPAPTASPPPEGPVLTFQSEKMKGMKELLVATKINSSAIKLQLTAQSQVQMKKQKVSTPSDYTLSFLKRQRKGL
Assay type: binding
Experimental: Test Example 1: Menin-MLL Interaction Inhibitory Activity Assay
The inhibition of Menin/MLL-4-43 peptide interaction by small molecule inhibitors was quantitatively detected by fluorescence polarization competition assay. The experiment was performed in a 384-well plate (Corning, Cat #3575) using a reaction buffer consisting of 50 mM Tris, pH 7.5, 50 mM NaCl, and 1 mM DTT. A 40 μL reaction system included 10 μL of 8 nM Menin recombinant protein and 10 μL of the test compound at different concentrations. The compound was pre-incubated with Menin protein for 15 min, and then 20 μL of 10 nM FITC-MLL4-43-peptide was added. After incubation on a shaker at 25° C. for 60 min, the fluorescence polarization signal (FP 485 520 520) was read using BMG PHERAStar detection. The experimental data was analyzed and processed by GraphPad Prism 6 software to obtain the IC50 value. The control compound 1 was prepared by referring to the method of Example 64 in WO2017214367.

Q: With `CCN(C(=O)c1cc(F)ccc1Oc1cncnc1N1CC2(CCN(CC3CC4CCC3CC43CCC(=O)N3)CC2)C1)C(C)C` (single isomer, unassigned) [Example 3-2] as the compound, how does the IC50 read?
A: 113 nM

Q: Which IC50 does the source give for `CCN(C(=O)c1cc(F)ccc1Oc1cncnc1N1CC2(CCN(CC3CC4CCC3CC43CCC(=O)N3)CC2)C1)C(C)C` (single isomer, unassigned) [Example 3] here?
A: 24 nM

Q: `CC(C)N(C(=O)c1cc(F)ccc1Oc1cncnc1N1CC2(CCN(CC3CC4CCC3CC43CCC(=O)N3)CC2)C1)C(C)C` (single isomer, unassigned) [Example 13-1] was tested. Which IC50 did it give?
A: 21.3 nM

Q: With `CCN(C(=O)c1cc(F)ccc1Oc1cncnc1N1CC2(CCN(CC3CC4CCC3CC43COC(=O)N3)CC2)C1)C(C)C` (single isomer, unassigned) [Example 50-1] as the compound, how does the IC50 read?
A: 36 nM

Q: For `CC(C)N(C(=O)c1cc(F)ccc1Oc1cncnc1N1CC2(CCN(CC3CC4CCC3CC43COC(=O)N3)CC2)C1)C(C)C` (single isomer, unassigned) [Example 51-1b], which IC50 is on record?
A: 46.7 nM

Q: `CC(C)N(C(=O)c1cc(F)ccc1Oc1cncnc1N1CC2(CCN(CC3CC4CCC3CC43COC(=O)N3)CC2)C1)C(C)C` (single isomer, unassigned) [Example 51-2a] was tested. Which IC50 did it give?
A: 70.7 nM

Q: `CC(C)N(C(=O)c1cc(F)ccc1Oc1nncnc1N1CC2(CCN(CC3CC4CCC3CC43COC(=O)N3)CC2)C1)C(C)C` (single isomer, unassigned) [Example 52-1b] was tested. Which IC50 did it give?
A: 38.7 nM

Q: With `CC(C)N(C(=O)c1cc(F)ccc1Oc1nncnc1N1CC2(CCN(CC3CC4CCC3CC43COC(=O)N3)CC2)C1)C(C)C` (single isomer, unassigned) [Example 52-2a] as the compound, how does the IC50 read?
A: 81.9 nM

Q: With `CC(C)N(C(=O)c1cc(F)ccc1Oc1nncnc1N1CC2(CCN(CC3CC4CCC3CC43COC(=O)N3)CC2)C1)C(C)C` (single isomer, unassigned) [Example 52-2b] as the compound, how does the IC50 read?
A: 198 nM

Q: With `CCN(C(=O)c1cc(F)ccc1Oc1cncnc1N1CC2(CCN(C[C@H]3CC[C@]4(CC3)CC(C)(C)C(=O)N4)CC2)C1)C(C)C` [Example 21] as the compound, how does the IC50 read?
A: 9.8 nM

Q: With `CC(C)N(C(=O)c1cc(F)ccc1Oc1cncnc1N1CC2(CCN(C[C@H]3CC[C@]4(CC3)CC(C)(C)C(=O)N4)CC2)C1)C(C)C` [Example 22] as the compound, how does the IC50 read?
A: 16.6 nM

Q: How did the IC50 turn out when `CC(C)N(C(=O)c1cc(F)ccc1Oc1nncnc1N1CC2(CCN(C[C@H]3CC[C@]4(CC3)CC(C)(C)C(=O)N4)CC2)C1)C(C)C` [Example 27] was run?
A: 16.3 nM

Q: How did the IC50 turn out when `[2H]C([2H])([2H])C1(C([2H])([2H])[2H])C[C@]2(CC[C@@H](CN3CCC4(CC3)CN(c3ncnnc3Oc3ccc(F)cc3C(=O)N(CC)C(C)C)C4)CC2)NC1=O` [Example 33] was run?
A: 8.4 nM

Q: For `[2H]C([2H])([2H])C1(C([2H])([2H])[2H])C[C@]2(CC[C@@H](CN3CCC4(CC3)CN(c3ncnnc3Oc3ccc(F)cc3C(=O)N(C(C)C)C(C)C)C4)CC2)NC1=O` [Example 34], which IC50 is on record?
A: 6.4 nM

Q: `CCN(C(=O)c1cc(F)ccc1Oc1cncnc1N1CC2(CCN(C[C@H]3CC[C@]4(CC3)C[C@@H](COC)C(=O)N4)CC2)C1)C(C)C` [Example 35] was tested. Which IC50 did it give?
A: 3.6 nM

Q: For `COC[C@@H]1C[C@]2(CC[C@@H](CN3CCC4(CC3)CN(c3ncncc3Oc3ccc(F)cc3C(=O)N(C(C)C)C(C)C)C4)CC2)NC1=O` [Example 36], which IC50 is on record?
A: 4.4 nM

Q: Which IC50 does the source give for `CC1C[C@]2(CC[C@@H](CN3CCC4(CC3)CN(c3ncncc3Oc3ccc(F)cc3C(=O)N(C(C)C)C(C)C)C4)CC2)NC1=O` (some centres unmarked) [Example 39] here?
A: 23.8 nM

Q: How did the IC50 turn out when `C=C1C[C@]2(CC[C@@H](CN3CCC4(CC3)CN(c3ncncc3Oc3ccc(F)cc3C(=O)N(C(C)C)C(C)C)C4)CC2)NC1=O` [Example 62] was run?
A: 19.9 nM
